Laboratory results as given in PMC7044277 (Nature Communications, 2020).
Where “and” joins values, the source holds several entries; their conditions need not be identical. Identical values can stand only once.

What was measured:
Format in all cases: cell-based
320 non-olfactory GPCRs [1] = molecular target: T1, 320 non-olfactory GPCRs (Homo sapiens, UniProt Q9NS75)
T1 construct: expressed in transfected cells; host or cells: HTLA cells

320 non-olfactory GPCRs [2] = molecular target: T2, 320 non-olfactory GPCRs (Homo sapiens, UniProt Q92847)
T2 construct: expressed in transfected cells; host or cells: HTLA cells

320 non-olfactory GPCRs [3] = molecular target: 320 non-olfactory GPCRs (Homo sapiens, UniProt P30989); conditions: receptor NTSR1; replicate values, Fig_4g
320 non-olfactory GPCRs [4] = molecular target: T3, 320 non-olfactory GPCRs (Homo sapiens, UniProt Q8TDV5)
T3 construct: expressed in transfected cells; host or cells: HTLA cells
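For Fold of Basal in this document: compound tested at 1 µM final concentration.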
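For GPCRome agonism screen response in this document: fold over basal response of each receptor without drug.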

T2 sequence (Q92847 whole entry): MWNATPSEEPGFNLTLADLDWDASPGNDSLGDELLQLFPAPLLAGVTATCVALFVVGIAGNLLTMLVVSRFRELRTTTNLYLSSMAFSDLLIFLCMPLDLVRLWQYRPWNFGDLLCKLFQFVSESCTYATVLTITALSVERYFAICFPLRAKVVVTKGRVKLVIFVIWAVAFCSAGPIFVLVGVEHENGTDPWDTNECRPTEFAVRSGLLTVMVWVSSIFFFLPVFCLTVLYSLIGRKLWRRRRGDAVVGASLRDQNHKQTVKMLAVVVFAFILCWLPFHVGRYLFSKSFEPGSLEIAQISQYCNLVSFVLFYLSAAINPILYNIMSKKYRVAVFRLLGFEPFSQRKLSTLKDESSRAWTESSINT
T1 sequence (Q9NS75 whole entry): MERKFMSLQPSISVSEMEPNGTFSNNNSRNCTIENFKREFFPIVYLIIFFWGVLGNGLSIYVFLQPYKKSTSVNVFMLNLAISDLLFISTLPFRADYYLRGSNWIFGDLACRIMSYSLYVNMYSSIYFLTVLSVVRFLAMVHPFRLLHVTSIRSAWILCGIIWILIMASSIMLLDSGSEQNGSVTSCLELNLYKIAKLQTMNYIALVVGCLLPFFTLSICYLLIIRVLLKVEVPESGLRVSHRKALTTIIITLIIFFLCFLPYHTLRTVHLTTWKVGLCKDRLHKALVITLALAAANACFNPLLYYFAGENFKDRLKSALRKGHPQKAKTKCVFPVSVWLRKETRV
T3 sequence (Q8TDV5 whole entry): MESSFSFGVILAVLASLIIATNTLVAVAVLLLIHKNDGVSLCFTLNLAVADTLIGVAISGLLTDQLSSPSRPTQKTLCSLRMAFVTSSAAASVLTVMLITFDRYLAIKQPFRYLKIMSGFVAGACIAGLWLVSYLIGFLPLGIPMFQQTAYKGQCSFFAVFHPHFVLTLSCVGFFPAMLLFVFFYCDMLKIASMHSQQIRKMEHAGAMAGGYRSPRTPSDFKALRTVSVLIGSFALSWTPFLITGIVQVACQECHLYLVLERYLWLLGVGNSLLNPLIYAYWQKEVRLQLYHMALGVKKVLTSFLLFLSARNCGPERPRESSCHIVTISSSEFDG
Chain of 320 non-olfactory GPCRs (Homo sapiens, UniProt P30989) (P30989 whole entry): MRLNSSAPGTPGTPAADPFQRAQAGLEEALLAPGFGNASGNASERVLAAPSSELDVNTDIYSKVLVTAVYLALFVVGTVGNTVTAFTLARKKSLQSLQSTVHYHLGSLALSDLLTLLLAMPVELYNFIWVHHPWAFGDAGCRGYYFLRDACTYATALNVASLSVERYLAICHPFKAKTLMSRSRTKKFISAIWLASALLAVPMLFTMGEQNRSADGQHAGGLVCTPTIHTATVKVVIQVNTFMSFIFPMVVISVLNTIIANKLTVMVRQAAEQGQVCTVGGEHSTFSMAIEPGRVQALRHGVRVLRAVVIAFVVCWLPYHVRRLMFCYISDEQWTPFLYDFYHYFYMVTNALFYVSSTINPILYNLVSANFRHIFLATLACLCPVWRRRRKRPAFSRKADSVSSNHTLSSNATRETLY

`CCOc1cccc2cc(C(C)NCC3(O)CCCCC3)oc12` (stereo not shown) [O4LE6] was tested, and the “Fold of Basal” value (320 non-olfactory GPCRs [1]) was 2.056 and 1.771 and 2.16 and 1.536, the “Fold of Basal” value (320 non-olfactory GPCRs [2]) was 0.8362 and 0.6901 and 0.8172 and 0.8114 and the “GPCRome agonism screen response” value (320 non-olfactory GPCRs [3]) was 0.7939 and 0.7425 and 1.49 and 2.039. For the same molecule, the “Fold of Basal” value (320 non-olfactory GPCRs [4]) was 0.5971 and 0.6704 and 0.4797 and 0.8296.
